{"source": "the OPERA property sets (Mansouri et al. 2018)", "data": [{"values": [{"smiles": "Cc1n[nH]c(C(=O)Nc2ccccc2)c1[N+](=O)[O-]", "logP": 1.81}, {"smiles": "C=C(Br)CC1(C(C)CCC)C(=O)NC(=O)NC1=O", "note": "(stereo not drawn)", "logP": 2.09}, {"smiles": "CC(NNC(=O)COc1ccccc1)c1ccccc1", "note": "(stereo not drawn)", "logP": 2.46}, {"smiles": "CC1(C)OC(=O)c2ccccc21", "logP": 1.73}, {"smiles": "CCNC(=O)c1ccoc1", "logP": 0.72}, {"smiles": "COc1cccc(C(=O)O)c1", "logP": 2.02}, {"smiles": "N#CSCc1ccccc1", "logP": 1.99}, {"smiles": "CC(=O)Oc1cccc(F)c1", "logP": 1.74}, {"smiles": "O=C(CN1CCCCC1)Nc1cccc([N+](=O)[O-])c1", "logP": 2.59}, {"smiles": "Cc1ccc(O)c(-n2nc3ccccc3n2)c1", "logP": 4.31}, {"smiles": "O=P1(NCCCl)OCCCN1CCCl", "note": "(stereo not drawn)", "logP": 0.86}, {"smiles": "S=C(N/N=C/c1cc[nH]c1)Nc1ccccc1", "logP": 3.73}, {"smiles": "O=C(Nc1ccccc1)C(F)(F)F", "logP": 2.21}, {"smiles": "Nc1ncnc2c1ncn2[C@@H]1O[C@@H]2COP(=O)(O)O[C@H]2[C@H]1O", "logP": -2.96}, {"smiles": "C=CCNCC=C", "logP": 1.11}, {"smiles": "CCC(=O)Nc1ccnc2cc(Cl)ccc12", "logP": 2.73}, {"smiles": "O=C(O)CCCCCCc1ccccc1", "logP": 3.63}, {"smiles": "NC(=O)NCc1ccccc1", "logP": 0.73}, {"smiles": "O=C(c1ccccc1)c1cccnc1", "logP": 1.88}, {"smiles": "O=C1NC(=O)C(c2ccccc2)(c2ccccc2)N1", "logP": 2.47}, {"smiles": "O=NN1CCSCC1", "logP": 0.4}, {"smiles": "CCOP(=S)(OCC)Oc1ccc(N)cc1", "logP": 2.6}, {"smiles": "CCN(CC)CC(F)(F)F", "logP": 1.88}, {"smiles": "O=C(O)COc1ccc(I)cc1", "logP": 2.69}, {"smiles": "CC(=O)OC[C@H]1O[C@H](OC(C)=O)[C@H](OC(C)=O)[C@@H](OC(C)=O)[C@@H]1OC(C)=O", "logP": 0.63}, {"smiles": "NC(=O)c1ccccc1O", "logP": 1.28}, {"smiles": "NC(=O)Cc1cccnc1", "logP": -0.71}, {"smiles": "CCCc1ccc(C(=O)OCCN(C)C)cc1", "logP": 3.63}, {"smiles": "C=C(C)C(=O)O", "logP": 0.93}, {"smiles": "N#Cc1cccc(C=O)c1", "logP": 1.18}, {"smiles": "CN(C)c1cccc2c(S(N)(=O)=O)cccc12", "logP": 2.01}, {"smiles": "O=[N+]([O-])c1cc(Cl)c(O)c(Cl)c1Cl", "logP": 3.93}, {"smiles": "O=C(Nc1ncnc2c1ncn2[C@@H]1O[C@H](CO)[C@@H](O)[C@H]1O)c1ccccc1", "logP": -0.1}, {"smiles": "CCOC(=O)CON=Cc1ccc(OCCOC(=O)CC)c(OC)c1", "logP": 2.39}, {"smiles": "CCc1ccccc1OC(=O)NC", "logP": 1.93}, {"smiles": "O=[N+]([O-])C=Cc1ccsc1", "logP": 1.94}, {"smiles": "COc1cc(S(C)=O)ccc1-c1nc2ccncc2[nH]1", "note": "(stereo not drawn)", "logP": 1.25}, {"smiles": "CCCCn1cnc2c(N)ncnc21", "logP": 1.25}, {"smiles": "NC1CC1", "logP": 0.07}, {"smiles": "COC(=O)c1cnc([N+](=O)[O-])n1C", "logP": 0.51}, {"smiles": "O=C1CCC(=O)N1c1ccccc1I", "logP": 0.8}, {"smiles": "CNS(=O)(=O)c1ccc(S(I)=C(N(C)C)N(C)C)cc1", "note": "(stereo not drawn)", "logP": -1.4}, {"smiles": "COc1ccc(NS(=O)(=O)c2ccc(N)cc2)nn1", "logP": 0.32}, {"smiles": "O=C(O)C(CO)c1ccccc1", "note": "(stereo not drawn)", "logP": 0.77}, {"smiles": "O=C1CCCCC1", "logP": 0.81}, {"smiles": "C#C", "logP": 0.37}, {"smiles": "OCCCCc1cccnc1", "logP": 0.92}, {"smiles": "CC(C)COC(=O)c1cc(O)c(O)c(O)c1", "logP": 2.46}, {"smiles": "CSc1cccc(OCC(=O)O)c1", "logP": 1.9}, {"smiles": "CCOP(=S)(OCC)SCCSCC", "logP": 4.02}, {"smiles": "CC1CCC(=O)CC1", "logP": 1.38}, {"smiles": "CSc1cccc(N)c1", "logP": 1.45}, {"smiles": "COc1ccc(C=O)cc1O", "logP": 0.97}, {"smiles": "O=C(CCn1cnc([N+](=O)[O-])n1)N1CCOCC1", "logP": -0.74}, {"smiles": "CCN1CC(C(O)C(CC2CCCCC2)NC(=O)C(Cc2cnc[nH]2)NC(=O)C(CC(=O)N(C)CCO)Cc2ccccc2)OC1=O", "note": "(stereo not drawn)", "logP": 1.94}, {"smiles": "S=C=Nc1ccc(Br)cc1", "logP": 4.03}, {"smiles": "O=Cc1ccc2c(c1)OCO2", "logP": 1.05}, {"smiles": "N#CCc1ccccc1", "logP": 1.56}, {"smiles": "CN(C)C(=O)OCc1ccc(Br)cc1", "logP": 3.01}, {"smiles": "CCCCOCc1ccccc1NC(=O)OCCN1CCCCC1", "logP": 3.94}, {"smiles": "O=C1Nc2ccccc2C1=O", "logP": 0.83}, {"smiles": "CNCC(c1ccccc1)C(C)C", "note": "(stereo not drawn)", "logP": 3.12}, {"smiles": "COC(C)=O", "logP": 0.18}, {"smiles": "CCCOCc1ccccc1NC(=O)OCCN1CCCCC1", "logP": 3.34}, {"smiles": "COc1cc([C@@H]2c3cc4c(cc3[C@H](O)[C@H]3COC(=O)[C@H]23)OCO4)cc(OC)c1OC", "logP": 2.01}, {"smiles": "COP(=S)(OC)Oc1ccc(S(=O)(=O)N(C)C)cc1", "logP": 2.23}, {"smiles": "Cc1cc(Cl)ccc1O", "logP": 2.78}, {"smiles": "CCc1cccs1", "logP": 2.87}, {"smiles": "CCC(=O)OC1(C(C)=O)C(C)CC2C3CCC4=CC(=O)C=CC4(C)C3(F)C(=O)CC21C", "note": "(stereo not drawn)", "logP": 3.09}, {"smiles": "Cc1cc(CC(=O)O)ccc1OCc1ccccc1", "logP": 3.37}, {"smiles": "NC(C(=O)OCn1ncc2c(=O)[nH]cnc21)c1ccccc1", "note": "(stereo not drawn)", "logP": -0.15}, {"smiles": "CC(=O)N[C@@H](CO)C(=O)N[C@@H](Cc1ccccc1)C(N)=O", "logP": -0.79}, {"smiles": "NCCc1c[nH]c2ccccc12", "logP": 1.55}, {"smiles": "Fc1cc(F)cc(Cn2cc[nH]c2=S)c1", "logP": 1.98}, {"smiles": "C(=C\\c1ccccc1)/c1ccccc1", "logP": 4.81}, {"smiles": "CN1C(=O)CC(=O)NC1=O", "logP": -0.85}, {"smiles": "CCCC(=O)CC(=O)CCC", "logP": 2.23}, {"smiles": "COC(=O)COc1ccccc1C", "logP": 2.08}, {"smiles": "Cc1n[nH]c(C(=O)N2CCCCCC2)c1[N+](=O)[O-]", "logP": 1.15}, {"smiles": "CN1CCN(CCCN2c3ccccc3Sc3ccc(Cl)cc32)CC1", "logP": 4.88}, {"smiles": "CCNC(C)C", "logP": 0.93}, {"smiles": "CNC(=O)Oc1ccccc1I", "logP": 1.94}, {"smiles": "C[n+]1cccc2ccccc21.[Br-]", "logP": -2.64}]}]}
